Results as given in patent publication US20210046106A1, “METHODS OF TREATING CANCER WITH ANDROGEN DEPRIVATION THERAPY IN COMBINATION WITH AN INHIBITOR OF THE SP1 TRANSCRIPTION FACTOR” (The Board of Trustees of the Leland Stanford Junior …, priority 2019, published 2021).
Several values for one entry are separate records, joined by “and”; a condition that tells them apart may be missing. Equal values may be shown once. Entries after “also recorded” stand apart in the source; their conditions may differ.

Experiment: Phase 1 trial of sodium selenite with palliative radiation therapy: adverse events / toxicity
Text: Patients: This study was approved by the Food and Drug Administration (IND 122151), the Stanford University Internal Review Board, and the Scientific Review Committee for the Stanford Cancer Institute. […] The study was initially open only to prostate cancer patients, but then expanded to include a variety of tumor types. […] Before study entry, patients had to meet a number of eligibility criteria. Inclusion criteria included a) histologically-confirmed solid tumor malignancy with confirmation of metastasis, multiple myeloma, or plasmacytoma, b) need for palliative radiation therapy, c) for prostate cancer patients, PSA at least 2 ng/mL, except for patients who had recently started androgen deprivation therapy with PSA less than 2 ng/mL, d) […], e) life expectancy greater than 3 months, f) Eastern Cooperative Oncology Group (ECOG) performance status of zero or one or Karnofsky performance status 80%, and g) QT interval corrected using Fridericia's method (QTcF) <460 msec.
Patients were treated in groups of three with each receiving the same dose. […] Dose escalation was to proceed as follows: a) if none of the three patients experienced a dose limiting toxicity (DLT), dose escalation to the next dose level would occur, b) if one of three patients treated at that dose level experienced a DLT, that dose level would be expanded to six subjects; if no additional patient in that cohort experienced a DLT, dose escalation to the next dose level would occur, c) if two patients in a cohort experienced a DLT, dose escalation would stop and the prior dose would be considered the maximum tolerated dose (MTD). At that point the MTD was to be expanded to a total of six patients.
Baseline evaluations included EKG, PSA for prostate cancer patients, CBC with differential, CMP, LDH, bone scan (BS), or CT, PET/CT or MRI as clinically indicated to monitor response to therapy. Palliative radiation therapy utilized standard of care palliative dose/fractionation regimens. On Week 1, Day 1 patients underwent physical exam (PE), laboratory studies as above and EKG. All patients completed a pain inventory, the Brief Pain Inventory, prior to therapy. […] Weekly, during radiation therapy, patients had vital signs performed, with assessment of adverse events (AEs), labs and EKG if clinically indicated. The pain inventory was completed again on the last day of radiation therapy. Following completion of therapy, the first follow-up visit was within 2-3 months +/−2 weeks, with subsequent follow-up visits optional until progression of disease at the site of radiation. […] They also completed another pain inventory.

[1] = 33 mg cohort, count-attribution

Compound: O=[Se](O)O [sodium selenite, Sodium selenite pentahydrate]
- Abdominal pain grade 1: Number of Occurrences (33 mg cohort): 3
- Abdominal pain grade 1: Number of Subjects Affected (33 mg cohort): 3
- Anemia grade 3: Number of Occurrences (33 mg cohort): 1
- Anemia grade 3: Number of Subjects Affected (33 mg cohort): 1
- Anemia grade 3: Relation to Selenite (33 mg cohort): Unrelated
- Back Pain grade 1: Number of Occurrences (33 mg cohort): 1
- Back Pain grade 1: Number of Subjects Affected (33 mg cohort): 1
- Back Pain grade 1: Relation to Selenite (33 mg cohort): Unrelated
- Bone Pain grade 1: Number of Occurrences (33 mg cohort): 1
- Bone Pain grade 1: Number of Subjects Affected (33 mg cohort): 1
- Bone Pain grade 1: Relation to Selenite (33 mg cohort): Unrelated
- Diarrhea grade 1: Number of Occurrences (33 mg cohort): 5
- Diarrhea grade 1: Number of Subjects Affected (33 mg cohort): 4
- Dizziness grade 1: Number of Occurrences (33 mg cohort): 1
- Dizziness grade 1: Number of Subjects Affected (33 mg cohort): 1
- Dizziness grade 1: Relation to Selenite (33 mg cohort): Probable
- Dysphagia grade 1: Number of Occurrences (33 mg cohort): 1
- Dysphagia grade 1: Number of Subjects Affected (33 mg cohort): 1
- Dysphagia grade 1: Relation to Selenite (33 mg cohort): Unrelated
- Dyspnea grade 1: Number of Occurrences (33 mg cohort): 1
- Dyspnea grade 1: Number of Subjects Affected (33 mg cohort): 1
- Dyspnea grade 1: Relation to Selenite (33 mg cohort): Unrelated
- Dyspnea grade 2: Number of Occurrences (33 mg cohort): 1
- Dyspnea grade 2: Number of Subjects Affected (33 mg cohort): 1
- Dyspnea grade 2: Relation to Selenite (33 mg cohort): Unrelated
- ECG QTcF Prolonged grade 1: Number of Occurrences (33 mg cohort): 2
- ECG QTcF Prolonged grade 1: Number of Subjects Affected (33 mg cohort): 2
- ECG QTcF Prolonged grade 1: Relation to Selenite (33 mg cohort): Probable
- Facial Pain grade 1: Number of Occurrences (33 mg cohort): 1
- Facial Pain grade 1: Number of Subjects Affected (33 mg cohort): 1
- Facial Pain grade 1: Relation to Selenite (33 mg cohort): Unrelated
- Fall (Mechanical) grade 2: Number of Occurrences (33 mg cohort): 2
- Fall (Mechanical) grade 2: Number of Subjects Affected (33 mg cohort): 1
- Fall (Mechanical) grade 2: Relation to Selenite (33 mg cohort): Unrelated
- Fatigue grade 1: Number of Occurrences (33 mg cohort): 2
- Fatigue grade 1: Number of Subjects Affected (33 mg cohort): 2
- Fatigue grade 1: Relation to Selenite (33 mg cohort): Possible
- Fatigue grade 2: Number of Occurrences (33 mg cohort): 2
- Fatigue grade 2: Number of Subjects Affected (33 mg cohort): 1
- Fatigue grade 2: Relation to Selenite (33 mg cohort): Unrelated,; also recorded: Possible
- Flu-like Symptoms grade 1: Number of Occurrences (33 mg cohort): 2
- Flu-like Symptoms grade 1: Number of Subjects Affected (33 mg cohort): 1
- Flu-like Symptoms grade 1: Relation to Selenite (33 mg cohort): Unrelated
- Nausea grade 1: Number of Occurrences (33 mg cohort): 8
- Nausea grade 1: Number of Subjects Affected (33 mg cohort): 5
- Nausea grade 2: Number of Occurrences (33 mg cohort): 1
- Nausea grade 2: Number of Subjects Affected (33 mg cohort): 1
- Paresthesia grade 1: Number of Occurrences (33 mg cohort): 1
- Paresthesia grade 1: Number of Subjects Affected (33 mg cohort): 1
- Paresthesia grade 1: Relation to Selenite (33 mg cohort): Unrelated
- Sore Throat grade 1: Number of Occurrences (33 mg cohort): 1
- Sore Throat grade 1: Number of Subjects Affected (33 mg cohort): 1
- Sore Throat grade 1: Relation to Selenite (33 mg cohort): Unrelated
- Upper Respiratory Infection grade 1: Number of Occurrences (33 mg cohort): 1
- Upper Respiratory Infection grade 1: Number of Subjects Affected (33 mg cohort): 1
- Upper Respiratory Infection grade 1: Relation to Selenite (33 mg cohort): Unrelated
- Vomiting grade 1: Number of Occurrences (33 mg cohort): 6
- Vomiting grade 1: Number of Subjects Affected (33 mg cohort): 2
- Vomiting grade 2: Number of Occurrences (33 mg cohort): 1
- Vomiting grade 2: Number of Subjects Affected (33 mg cohort): 1
- Vomiting grade 2: Relation to Selenite (33 mg cohort): Probable
- Abdominal pain grade 1: Relation to Selenite [1]: 1-Possible, and 2-Probably
- Diarrhea grade 1: Relation to Selenite [1]: 2-Possible, and 3-Probable
- Vomiting grade 1: Relation to Selenite [1]: 4-Probable, and 2-Unlikely
- Nausea grade 1: Relation to Selenite (33 mg cohort, printed 7-Probable, 1-Unrelated over four lines): Probable,; also recorded: Unrelated
- Nausea grade 2: Relation to Selenite (33 mg cohort, printed Probable/Definite over two lines): Probable/; also recorded: Definite
- primary toxicities (33 mg dose level): grade 1 GI side effects
- QT prolongation (33 mg dose level, ECG review): grade 1 QT prolongation in 2 patients; also recorded: two patients had grade 1 ECG QTcF prolongations; also recorded: within the range of expected intra-subject variability
- primary toxicities (33 mg dose level, listed as selenite): grade 1 GI side effects; also recorded: grade 1 GI toxicities
- Back Pain grade 2: Number of Occurrences (49.5 mg cohort): 1
- Back Pain grade 2: Number of Subjects Affected (49.5 mg cohort): 1
- Back Pain grade 2: Relation to Selenite (49.5 mg cohort): Unrelated
- Diarrhea grade 2: Number of Occurrences (49.5 mg cohort): 1
- Diarrhea grade 2: Number of Subjects Affected (49.5 mg cohort): 1
- Diarrhea grade 2: Relation to Selenite (49.5 mg cohort): Possible
- Fatigue grade 1: Number of Occurrences (49.5 mg cohort): 1
- Fatigue grade 1: Number of Subjects Affected (49.5 mg cohort): 1
- Fatigue grade 1: Relation to Selenite (49.5 mg cohort): Possible
- Nausea grade 1: Number of Occurrences (49.5 mg cohort): 1
- Nausea grade 1: Number of Subjects Affected (49.5 mg cohort): 1
- Nausea grade 1: Relation to Selenite (49.5 mg cohort): Probable
- Nausea grade 2: Number of Occurrences (49.5 mg cohort): 1
- Nausea grade 2: Number of Subjects Affected (49.5 mg cohort): 1
- Nausea grade 2: Relation to Selenite (49.5 mg cohort): Probable
- Pain in Extremity grade 2: Number of Occurrences (49.5 mg cohort): 1
- Pain in Extremity grade 2: Number of Subjects Affected (49.5 mg cohort): 1
- Pain in Extremity grade 2: Relation to Selenite (49.5 mg cohort): Unrelated
- Vomiting grade 1: Number of Occurrences (49.5 mg cohort): 1
- Vomiting grade 1: Number of Subjects Affected (49.5 mg cohort): 1
- Vomiting grade 1: Relation to Selenite (49.5 mg cohort): Probable
- Vomiting grade 2: Number of Occurrences (49.5 mg cohort): 1
- Vomiting grade 2: Number of Subjects Affected (49.5 mg cohort): 1
- Vomiting grade 2: Relation to Selenite (49.5 mg cohort): Probable
- toxicity in the one patient at 49.5 mg (49.5 mg dose level, 1 patient): grade 2 nausea/vomiting and diarrhea; also recorded: grade 2 GI toxicity; also recorded: grade 2 diarrhea, nausea and vomiting
- toxicity / adverse events attributable to selenite (5.5, 11 and 16.5 mg dose levels, oral 2 h before RT): no toxicity attributable to selenite; also recorded: no adverse events attributable to selenite; also recorded: no AEs attributable to the selenite
- toxicities at all other dose levels (33 and 49.5 mg dose levels): grade 1 and 2 GI toxicities
- maximum tolerated dose (MTD) (doses 5.5 to 49.5 mg po/day with RT): not reached
- highest acceptable / reasonably well tolerated dose (oral once daily with RT, ondansetron prn): 33 mg
